In the NIST ThermoML archive (doi:10.1016/j.jct.2016.09.015):
Numbers after ± are expanded uncertainties.

Tests used:
[1] = Crystal; DTA
[2] = Molar enthalpy of transition or fusion; details: Crystal; DSC

With `C[C@@H]1O[C@@H](OC[C@H]2O[C@@H](Oc3c(-c4ccc(OCCO)c(OCCO)c4)oc4cc(OCCO)cc(O)c4c3=O)[C@H](O)[C@@H](O)[C@@H]2O)[C@H](O)[C@H](O)[C@H]1O` [Troxerutin] the Normal melting temperature [1] was 168.68 ± 0.46 °C and the “Molar enthalpy of transition or fusion” value [2] was 7.44 ± 0.526 kcal/mol.
